Tests used:
Format in all cases: biochemical
[1] = target: T1, DDP4 enzyme (Homo sapiens, UniProt P27487); assay: in vitro inhibiting activity against DDP4 enzyme (Caco-2 cell lysis solution, H-Gly-Pro-AMC substrate); settings: for inhibition rate against DDP4: 100 μM; for inhibition at 100 µM: read-out: inhibition rate against DDP4
T1 construct: cell lysis solution of human colon cancer cell line Caco-2 as DDP4 enzyme source; endogenous in cells; host or cells: Caco-2 (human colon cancer cell line) lysate
T1 sequence (P27487 whole entry): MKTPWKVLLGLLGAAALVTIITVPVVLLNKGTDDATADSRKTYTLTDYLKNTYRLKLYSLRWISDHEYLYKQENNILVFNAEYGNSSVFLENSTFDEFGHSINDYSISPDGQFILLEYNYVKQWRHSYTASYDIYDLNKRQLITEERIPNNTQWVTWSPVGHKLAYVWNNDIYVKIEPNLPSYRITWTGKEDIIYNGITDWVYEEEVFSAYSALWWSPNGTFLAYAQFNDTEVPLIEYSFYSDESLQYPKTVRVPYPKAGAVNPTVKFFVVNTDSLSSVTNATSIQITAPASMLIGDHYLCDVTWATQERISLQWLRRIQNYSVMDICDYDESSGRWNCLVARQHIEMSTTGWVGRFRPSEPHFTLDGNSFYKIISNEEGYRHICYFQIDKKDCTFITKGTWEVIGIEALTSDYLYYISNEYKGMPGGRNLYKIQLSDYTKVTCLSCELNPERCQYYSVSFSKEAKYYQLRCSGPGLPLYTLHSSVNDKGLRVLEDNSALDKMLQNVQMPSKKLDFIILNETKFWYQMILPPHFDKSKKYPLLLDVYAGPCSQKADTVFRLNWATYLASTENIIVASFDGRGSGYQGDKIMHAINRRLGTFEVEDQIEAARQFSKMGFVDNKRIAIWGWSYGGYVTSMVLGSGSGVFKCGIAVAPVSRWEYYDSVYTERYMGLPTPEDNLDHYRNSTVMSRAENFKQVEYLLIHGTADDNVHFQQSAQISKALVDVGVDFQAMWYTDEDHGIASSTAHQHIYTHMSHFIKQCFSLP
Method: Experimental method: (1) determination of inhibiting activity of Compound I and Compound II against DDP4 enzyme in vitro: cell lysis solution of human colon cancer cell line Caco-2 as DDP4 enzyme source (Thomas, L., et al, 2008, JPET). In a drug screening system of 96-well plate, 100 μL/well, the final concentration of H-Gly-Pro-AMC substrate (AnaSpec) was 244 μM, in which different concentrations of test compounds were added for incubation at 37° C. for 30 mins Fluorescence signals were detected at excitation wavelength 380 nm/emission wavelengths 460 nm Inhibition rates (%) on the enzyme of test samples against DDP4 were calculated according to fluorescence absorption value obtained by detection. The inhibition rate (%) is calculated according to the following formula: Inhibition rate (%)=(RFU blank−RFU compound)/(RFU blank−RFU negative control)*100%
RFU compound, RFU blank, and RFU negative control represent the difference of fluorescence values at 30 mins and at 0 min from a compound well, a blank well, and a negative control well free of enzyme; (2) effect of Compound I and Compound II for acute glucose tolerance in mice: the OGTT experimental method was the same to Example 5, the mice were divided into control group; calibration group; Compound I lower dose group (100 mg/kg); Compound I higher dose group (200 mg/kg); Compound II lower dose group (100 mg/kg); Compound II higher dose group (200 mg/kg); and positive drug group (Sitagliptin 10 mg/kg, Merck Company, USA).

[2] = target: T2, glucose oxidase (GOX) (Homo sapiens, UniProt Q9UJM8); assay: inhibitory activity against glucose oxidase (GOX), enzyme coupling method with glycolic acid substrate; set-up: Vmax: unit not given here; settings: for inhibition at 0.1 µM / inhibition at 0.3 µM / inhibition at 1 µM / inhibition at 3 µM / inhibition at 10 µM / inhibition at 30 µM / inhibition at 100 µM: read-out: Inhibition rate; for IC50: fitted by Graphpad Prism 5.0, tested 100 μM-0.1 μM
T2 sequence (Q9UJM8 1-370): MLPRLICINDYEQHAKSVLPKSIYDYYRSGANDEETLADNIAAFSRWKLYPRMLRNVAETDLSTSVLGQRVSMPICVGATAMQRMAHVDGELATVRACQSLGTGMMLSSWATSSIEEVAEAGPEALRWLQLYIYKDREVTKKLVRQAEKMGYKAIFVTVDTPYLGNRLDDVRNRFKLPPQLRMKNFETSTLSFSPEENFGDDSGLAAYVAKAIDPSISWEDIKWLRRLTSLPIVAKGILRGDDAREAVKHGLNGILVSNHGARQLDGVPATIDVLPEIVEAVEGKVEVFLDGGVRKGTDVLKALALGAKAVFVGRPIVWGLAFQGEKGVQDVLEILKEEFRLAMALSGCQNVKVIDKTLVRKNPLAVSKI
Method: Mechanism of experiment: enzyme coupling method utilizes peroxidase (POD) and substrates thereof to react with generated H2O2 to produce colored products so as to determine the catalytic reaction rate of glucose oxidase. POD catalyzes H2O2 to react with phenol and 4-amino antipyrine to produce brown-red quinone substances.
Experimental method: reagents were added according to the table below; the reaction was immediately initiated upon the final addition of substrate glycolic acid; the kinetic course of the reaction was detected by microplate reader; the enzyme activity was represented by Vmax, maximum reaction velocity.
The measurement results were fitted by Graphpad Prism 5.0 to calculate IC50 values.

[3] = target: T3, porcine pancrelipase (Sus scrofa, UniProt P00591); assay: inhibitory activity against pancrelipase (p-Nitrophenyl acetate substrate); settings: read-out: Inhibition rate % (50 μM) against pancrelipase
T3 construct: purchased Sigma
T3 sequence (P00591 1-450): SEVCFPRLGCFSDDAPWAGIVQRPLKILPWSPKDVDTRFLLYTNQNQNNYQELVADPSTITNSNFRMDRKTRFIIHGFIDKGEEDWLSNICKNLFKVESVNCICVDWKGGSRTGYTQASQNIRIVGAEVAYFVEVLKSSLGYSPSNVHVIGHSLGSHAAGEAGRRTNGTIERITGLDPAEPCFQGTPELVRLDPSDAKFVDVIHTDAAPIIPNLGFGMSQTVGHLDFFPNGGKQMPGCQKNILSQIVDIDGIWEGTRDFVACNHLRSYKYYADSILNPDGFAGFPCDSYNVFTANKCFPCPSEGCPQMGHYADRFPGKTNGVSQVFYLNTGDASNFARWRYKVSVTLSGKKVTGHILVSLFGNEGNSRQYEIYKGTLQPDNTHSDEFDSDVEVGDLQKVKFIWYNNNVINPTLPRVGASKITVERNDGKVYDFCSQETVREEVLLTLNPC
Excerpt: OD compound, OD blank, and OD negative control represented the fluorescence values from a compound well, a blank well, and a negative control well free of DGAT1 enzyme, and the concentrations of the compounds when the enzyme activity inhibition rate (%) reached 50% were set as IC50 value; (3) inhibitory activity of the individual compounds separated from the extract of Glechoma longituba (Nakai) Kupr., LQC-H-1, against pancrelipase: substrate p-Nitrophenyl acetate (Sigma, USA) was formulated to 1.35 mM with phosphate buffer (25 mM, pH 6.8); porcine pancrelipase (Sigma) was formulated to 10 mg/ml with phosphate buffer; brominated eneyne compounds were formulated to solutions of different concentrations with phosphate buffer. Then, 50 μl of 1.35 mM p-Nitrophenyl acetate (Sigma, USA) solution and 10 μl of test compounds of different concentrations were sequentially added into a 96-well plate and pre-incubated at 37° C. for 5 mins. Finally, 50 μl of 10 mg/ml pancrelipase (EC 3.1.1.3, Sigma, USA) was added and mixed. The reaction proceeded at 37° C. for further 20 mins Absorbance of each well was measured at 492 nm. The inhibition rates (%) of the test samples against pancrelipase were calculated based on the absorbance at 492 nm. The concentrations of the compounds when then enzyme activity inhibition rate (%) reached 50% was set as IC50 value. The inhibition rate (%) could be calculated according to the following formula: Inhibition rate (%)=[(A−B)−(C−D)]/(A−B)×100
In the above formula, A, B, C, and D represented the absorbance of a blank well after the reaction, the absorbance of a blank well prior to the reaction, the absorbance of a sample well after the reaction, and the absorbance of a sample well prior to the reaction.

Structure (SMILES): O=C(O)C1O[C@@H](OC2C(O)[C@H](O)C(C(=O)O)O[C@H]2Oc2cc(O)c3c(=O)cc(-c4ccc(O)c(O)c4)oc3c2)C(O)C(O)[C@@H]1O (stereo partly drawn) [Compound I, luteolin-7-O-[β-glucuronosyl(1→2)β-glucuronic acid]]
- inhibition rate against DDP4 [1]: 40.8%
- inhibition at 100 µM [1]: 40.8 ± 3.26%
- Vmax ([2]; 0.1 μM): 35.13 ± 0.22
- inhibition at 0.1 µM ([2]; 0.1 μM): 1.54 ± 0.62%
- Vmax ([2]; 0.3 μM): 35.47 ± 0.98
- inhibition at 0.3 µM ([2]; 0.3 μM): 0.6 ± 2.74%
- Vmax ([2]; 1 μM): 35.36 ± 0.65
- inhibition at 1 µM ([2]; 1 μM): 0.9 ± 1.82%
- Vmax ([2]; 3 μM): 35.39 ± 0.63
- inhibition at 3 µM ([2]; 3 μM): 0.83 ± 1.77%
- Vmax ([2]; 10 μM): 35.08 ± 0.21
- inhibition at 10 µM ([2]; 10 μM): 1.69 ± 0.58%
- Vmax ([2]; 30 μM): 34.04 ± 0.65
- inhibition at 30 µM ([2]; 30 μM): 4.6 ± 1.82%
- Vmax ([2]; 100 μM): 29.34 ± 0.10
- inhibition at 100 µM ([2]; 100 μM): 17.8 ± 0.29%
- IC50 [2]: 500 µM
- inhibition at 50 µM [3]: 41.9%

Structure (SMILES): O=C(O)C1O[C@@H](OC2C(O)[C@H](O)C(C(=O)O)O[C@H]2Oc2cc(O)c3c(=O)cc(-c4ccc(O)cc4)oc3c2)C(O)C(O)[C@@H]1O (stereo partly drawn) [Compound II, apigenin-7-O-[β-glucuronosyl(1→2)β-glucuronic acid]]
- inhibition rate against DDP4 [1]: 34.1%
- inhibition at 100 µM [1]: 34.1 ± 3.91%
- Vmax ([2]; 0.1 μM): 36.05 ± 0.85
- inhibition at 0.1 µM ([2]; 0.1 μM): -1.04 ± 2.39%
- Vmax ([2]; 0.3 μM): 36.35 ± 0.84
- inhibition at 0.3 µM ([2]; 0.3 μM): -1.88 ± 2.35%
- Vmax ([2]; 1 μM): 35.42 ± 0.43
- inhibition at 1 µM ([2]; 1 μM): 0.74 ± 1.19%
- Vmax ([2]; 3 μM): 35.85 ± 1.03
- inhibition at 3 µM ([2]; 3 μM): -0.48 ± 2.9%
- Vmax ([2]; 10 μM): 35.63 ± 1.00
- inhibition at 10 µM ([2]; 10 μM): 0.15 ± 2.81%
- Vmax ([2]; 30 μM): 33.88 ± 0.98
- inhibition at 30 µM ([2]; 30 μM): 5.05 ± 2.76%
- Vmax ([2]; 100 μM): 29.13 ± 0.80
- inhibition at 100 µM ([2]; 100 μM): 18.4 ± 2.23%
- IC50 [2]: 400 µM
- inhibition at 50 µM [3]: 41.6%

From patent publication US10966996B2, “Glechoma longitube extract, preparation method for same, and use thereof in sugar reduction, weight loss, and lipid reduction” (SHANGHAI INSTITUTE OF MATERIA MEDICA CHINESE ACADEMY OF …, priority 2014, dated 2021)
